Measured values taken from patent US20240218019A1, “METHODS AND COMPOSITIONS COMPRISING MHC CLASS I PEPTIDES” (BOARD OF REGENTS, THE UNIVERSITY OF TEXAS SYSTEM, priority 2021, published 2024).
“Also recorded” adds a separate entry of the source.

Test system: healthy donor PBMCs
Test: IFNγ ELISpot assay with peptide-stimulated healthy donor PBMCs
Type: cell-based, human
Conditions: for ELISPOT positive: only neoAgs marked Tested with ELISPOT; for ELISpot result (positive response) for peptides tested with ELISpot / ELISpot IFNγ reactivity (immunogenicity) of individual peptides: healthy donor PBMCs; for ELISpot IFNγ reactivity (immunogenicity) of individual peptides: compared to unexposed control cells
Procedure: FIG. 10A-D. In vitro validation of predicted neoAgs immunogenicity using ELISpot IFNy assay. A) Schematic of peptide pool, stimulation, and cell culture workflow for ELISpot assays. PBMCs were exposed with the individual peptides from the immunogenic pools in the presence of IL-7 for 3 d, followed by expansion of neoAg-specific T cells in the presence of IL-2. On day 13, expanded cells (10^5 cells per well) were plated onto 96-well ELISpot plate coated with an IFNγ antibody and re-stimulated with the respective peptide for 24 h. IFNy secreting cells were analyzed as spot-forming units (SFUs), and the inventors chose ≥15 SFU produced by peptide stimulated cells over DMSO control cells as an indicator of the peptide immunogenicity. B) Quantification of IFNγ-secreting cells (SFU) obtained from ELISpot assay of 12 neoAg-stimulated PBMCs. ConcA and DMSO served as positive and negative controls. […] C) Selection of 110 predicted MHC-I neoAgs from 3 different categories and percentage of immunogenicity in vitro validation. […] “Most Immunogenic” refers to neoAgs selected from the top 100 prediction list of Most Immunogenic MHC-I neoAgs. “Most recurrent” refers to neoAgs selected from the top 100 prediction list of Most Recurrent MHC-I neoAgs. “Others” refers neoAgs that were predicted to have low immunogenicity and no recurrency. A total of 44 MHC-II neoAgs from 2 different categories were tested. […] “Most Immunogenic” refers to neoAgs selected from the top 100 prediction list of Most Immunogenic MHC-II neoAgs. “Most recurrent” refers to neoAgs selected from the top 100 prediction list of Most Recurrent MHC-II neoAgs. D) pMHC-pentamer staining. Expanded Pan-T cells from the healthy human donor were isolated and stained with WDTC1 neoAg peptide/A*02:01 Pentameric complexes and PerCP-conjugated CD8 antibody followed by flow cytometry analysis. Pan T-cells from healthy human donor PBMC (HLA-A*02:01) were isolated using negative magnetic selection. Isolated Pan T cells were stimulated and expanded with Opto-antigen presenting beads conjugated with WDTC1 neoAg-peptide. Viable Pan-T cells were gated based on FSC and SSC scatter and SYTOX Blue dead cells staining after doublet-exclusion. Flow cytometric plots representing CD8 positive (x-axis) and PE-biotin-pMHC-pentamer positive (y-axis) cells; unstained, unstimulated, and WDTC1 Opto-antigen presenting beads stimulated cells (left to right). The percentage of live CD8+ cells and CD8/WDTC1 neoAg-loaded MHC pentamer positive cells are shown.
FIG. 19A-B. In vitro validation of the pooled predicted neoAgs immunogenicity using ELISpot IFNγ assay. A) Schematic of peptide pool, stimulation, and cell culture workflow for ELISpot assays. All 154 peptides were grouped into 15 peptide pools to stimulate PBMCs from 3 healthy human donors as shown in the illustrations. IFNy secreting cells were analyzed as spot-forming units (SFUs), indicative of immunogenicity. B) Quantification of IFNγ-secreting cells (SFU) obtained from ELISpot assay. Pools 2, 3, 5, 6, 9, and 12 produced at least 15 or higher SFU/10^5 cells from two different PBMCs. […] ConcA and DMSO served as positive and negative controls.
Healthy donor PBMCs were stimulated with 15 peptide pools (Supplementary Table 13) to expand the neoAg-specific CD8^+ T-cells followed by quantitative ELISpot assays (FIG. 19A) to measure immunogenicity. […] To ascertain the immunogenicity of individual peptides within each immunogenic pool. a deconvolution protocol (see Methods) was implemented (FIG. 10A). […] Three percent of MHC-I neoAgs not predicted to be highly immunogenic or recurrent (Others). 5% of the top 100 most immunogenic MHC-II predicted neoags, and 6% of the top 100 most recurrent MHC-II predicted neoags elicited an immunogenic response as assessed by ELISpot assays. Additionally. 18% of all of these elispot-reactive neoags were also predicted from the validation set (FIG. 9C). […]

[1] = IFNγ ELISpot, only peptides marked Tested
[2] = IFNγ ELISpot, peptides marked Tested
[3] = IFNγ ELISpot, peptide-stimulated healthy donor PBMCs, peptides grouped in 15 pools
[4] = IFNγ ELISpot, peptide-stimulated healthy donor PBMCs
[5] = IFNγ secretion in healthy donor PBMCs vs unexposed control cells

With 112 (FLALNQLPQV) [compound 112] the “ELISPOT positive” value was “No”.
218 (RWMVLRNSWRAVARM) [compound 218] was tested, and the Elispot reactive [1] was “No”.
In the case of 219 (IDNIKRNHNLALGRQ) [compound 219], the Elispot reactive [1] is reported as “No”.
In the case of 220 (PKMQVTITLTSPIIR) [compound 220], the Elispot reactive [1] is reported as “No”.
For 222 (KTGLQLLRNHIEELK) [compound 222], the Elispot reactive [1] was “No”.
223 (QKKLMLLRLNLRKMC) [compound 223] was tested, and the “ELISpot result (positive response) for peptides tested with ELISpot” value (shortened to “ELISpot result (positive response)”) (IFNγ ELISpot) was “No” and the Elispot reactive [1] was “No”.
224 (LINIHHRKNPLLPMR) [compound 224] was tested, and the Elispot reactive [1] was “No”.
227 (EDIEFHFSLGWTMLV) [compound 227] was tested, and the Elispot reactive [1] was “No”.
229 (PALLLAEATHKASAL) [compound 229] was tested, and the Elispot reactive [1] was “No” and the Elispot reactive [2] was “No”.
For 230 (SLDNVLRTMLRRFAR) [compound 230], the Elispot reactive [1] was “No”.
For 231 (YLRFIKSLAERTMSV) [compound 231], the Elispot reactive [1] was “No”.
233 (RHVIKVLLGRKVNWH) [compound 233] was tested, and the Elispot reactive [1] was “No” and the Elispot reactive [2] was “No”.
With 234 (QLARFFPITPPVWHI) [compound 234] the Elispot reactive [1] was “No” and the Elispot reactive [2] was “No”.
236 (FEEIIKNDGALLKKK) [compound 236] was tested, and the Elispot reactive [1] was “No”.
238 (TKFITYRSKKLIQES) [compound 238] was tested, and the Elispot reactive [1] was “No”.
239 (LEVMLLNMGYRITGL) [compound 239] was tested, and the Elispot reactive [1] was “No” and the Elispot reactive [2] was “No”.
With 240 (SINVLCVRASLIEKL) [compound 240] the “ELISpot result (positive response)” value (IFNγ ELISpot) was “No” and the Elispot reactive [1] was “No”.
For 250 (TVEMRRWWTLVMEWK) [compound 250], the Elispot reactive [2] was “No”.
For 290 (ANRYFSPNFKVKLYF) [compound 290], the “ELISpot result (positive response)” value (IFNγ ELISpot) was “No”.
In the case of 311 (KSLVRLSSCVPVALM) [compound 311], the Elispot reactive [2] is reported as “No” and the “ELISpot result (positive yes/no)” value (peptides marked Tested with ELISpot) is reported as “No”.
In the case of 318 (LRGGVIQSTRRRRRA) [compound 318], the Elispot reactive [2] is reported as “No”.
319 (PCASLLSTLSQPPPQ) [compound 319] was tested, and the Elispot reactive [2] was “No”.
320 (EDMQEVVVHKKRGLF) [compound 320] was tested, and the Elispot reactive [2] was “No”.
In the case of 321 (RFPLLMMWRTPMTTR) [compound 321], the Elispot reactive [2] is reported as “No”.
With 322 (PVLFKADQSESSLSS) [compound 322] the Elispot reactive [2] was “No”.
With 324 (FGILNVLEFSSDRKK) [compound 324] the Elispot reactive [2] was “No”.
325 (ILVALSWMGGLHSFY) [compound 325] was tested, and the Elispot reactive [2] was “No”.
328 (LLHWRIGGGTPLSIS) [compound 328] was tested, and the Elispot reactive [2] was “No”.
With 329 (EIQLTMNDSKHKLES) [compound 329] the Elispot reactive [2] was “No”.
With 332 (GVRILKLCSKVSFRV) [compound 332] the Elispot reactive [2] was “No”.
With 334 (ALGLRILPPPLTSPS) [compound 334] the Elispot reactive [2] was “No”.
With 335 (KKSVLKAIEQADLLQ) [compound 335] the Elispot reactive [2] was “No”.
In the case of 336 (KEALFLQEVFQAERL) [compound 336], the Elispot reactive [2] is reported as “No”.
With 354 (PVTPLRVQSVLLLGV) [compound 354] the “ELISpot result (positive response)” value (IFNγ ELISpot) was “No”.
With 507 (VVHKKRGL) [compound 507] the Elispot reactive (IFNγ ELISpot, only peptides marked Elispot tested = Yes) was “No”.
For AGIGWGASY, the Elispot reactive [3] was “yes”.
With AGIGWGASY [compound 160] the “ELISPOT result (positive Yes/No) for peptides marked Tested” value [4] was “Yes” and the Elispot reactive [5] was “Yes”.
For AMAENILAA [compound 150], the “ELISPOT result (positive Yes/No) for peptides marked Tested” value [4] was “No”.
APREGAAATPL [compound 18] was tested, and the Elispot reactive [1] was “No”.
For APSLTPMHSL [compound 209], the Elispot reactive (IFNγ ELISpot, peptide tested) was “No”.
For ASLAHSDNF [compound 106], the “ELISPOT result (positive Yes/No) for peptides marked Tested” value [4] was “No” and the “ELISPOT positive” value was “No”.
For ATLVTPPTRY [compound 166], the “ELISPOT result (positive Yes/No) for peptides marked Tested” value [4] was “No”.
For CRREYRVTM [compound 135], the “ELISPOT result (positive Yes/No) for peptides marked Tested” value [4] was “No”.
ELLNPVTMNK [compound 207] was tested, and the Elispot reactive (IFNγ ELISpot, peptide tested) was “No”.
With “FLADSGIDPV [WDTC1, WDTC1 neoAg peptide, HLA-A*02:01 restricted]” the “ELISpot IFNγ reactivity (immunogenicity) of individual peptides” value was “most reactive (immunogenic); also recorded: immunogenic”.
In the case of FLAPCNFYL [compound 16], the Elispot reactive (IFNγ ELISpot, peptide tested) is reported as “No”.
For FLATSGIDPV [compound 44], the “ELISPOT result for peptides marked Tested with ELISPOT (Yes/No)” value (“ELISPOT result … (Yes/No)” below) [4] was “Yes”, the Elispot reactive [2] was “Yes” and the Elispot reactive [5] was “Yes”.
FLIDDNFKV was tested, and the Elispot reactive [3] was “yes”.
For FLIDDNFKV [SEQ ID NO 10], the “ELISpot IFNγ reactivity (immunogenicity) of individual peptides” value (listed as TTLL10) was “most reactive (immunogenic); also recorded: immunogenic”.
FLIDDNFKV [compound 10] was tested, and the Elispot reactive (IFNγ ELISpot, peptide tested) was “Yes” and the Elispot reactive [5] was “Yes”.
With FLMDGFDEL [compound 11] the Elispot reactive (IFNγ ELISpot, peptide tested) was “No”.
FLQEVFQA [compound 5] was tested, and the “ELISPOT result (positive Yes/No) for peptides marked Tested” value [4] was “No”.
In the case of FLWNSLLAV [compound 12], the Elispot reactive (IFNγ ELISpot, peptide tested) is reported as “No”.
FMNSTVFHV [compound 3] was tested, and the “ELISPOT result … (Yes/No)” value [4] was “No”.
FQVHFLKSGGLPLVL was tested, and the Elispot reactive [3] was “yes”.
With FQVHFLKSGGLPLVL [compound 221] the Elispot reactive [1] was “Yes” and the Elispot reactive [5] was “Yes”.
For GLLHAVQEKL [compound 165], the “ELISPOT result (positive Yes/No) for peptides marked Tested” value [4] was “No”.
For GMVPLIIPV [compound 116], the Elispot reactive [2] was “No”.
For HNVQGFHPY [compound 178], the “ELISPOT result (positive Yes/No) for peptides marked Tested” value [4] was “No”.
With HPARHLCRL [compound 208] the Elispot reactive (IFNγ ELISpot, peptide tested) was “No”.
With HPPPPCLLLL [compound 217] the Elispot reactive (IFNγ ELISpot, peptide tested) was “No”.
In the case of HSWRFCTHIR [compound 154], the “ELISPOT result (positive Yes/No) for peptides marked Tested” value [4] is reported as “No”.
HTCKVCVSF [compound 176] was tested, and the “ELISPOT result (positive Yes/No) for peptides marked Tested” value [4] was “No”.
With IAFSQLIGM [compound 167] the “ELISPOT result (positive Yes/No) for peptides marked Tested” value [4] was “No”.
In the case of IAQPSTSSL [compound 28], the Elispot reactive [1] is reported as “No” and the Elispot reactive [2] is reported as “No”.
With ILFFFSSK [compound 175] the “ELISPOT result (positive Yes/No) for peptides marked Tested” value [4] was “No”.
IQKSWTATTY was tested, and the Elispot reactive [3] was “yes”.
In the case of IQKSWTATTY [compound 39], the Elispot reactive [1] is reported as “Yes” and the Elispot reactive [5] is reported as “Yes”.
With KADQSESSL [compound 123] the Elispot reactive [2] was “No”.
In the case of KANRYFSPNF [compound 62], the “ELISPOT result (positive Yes/No) for peptides marked Tested” value [4] is reported as “Yes”, the “ELISPOT result … (Yes/No)” value [4] is reported as “No” and the Elispot reactive [5] is reported as “Yes”.
With KLFEKKYSV [compound 6] the Elispot reactive (IFNγ ELISpot, peptide tested) was “No”.
In the case of KLSSVVPSV [compound 22], the Elispot reactive [1] is reported as “No”.
With KLYEAVPQL [compound 159] the “ELISPOT result (positive Yes/No) for peptides marked Tested” value [4] was “No”.
For KMMKILMIK [compound 19], the Elispot reactive [1] was “No”.
With KPIAGRHTL [compound 8] the Elispot reactive (IFNγ ELISpot, peptide tested) was “No”.
In the case of KPLWRKSPL [compound 137], the “ELISPOT result (positive Yes/No) for peptides marked Tested” value [4] is reported as “No”.
In the case of KRAFIHTPR [compound 131], the “ELISPOT result (positive Yes/No) for peptides marked Tested” value [4] is reported as “No”.
KTYMEMHY was tested, and the Elispot reactive [3] was “yes”.
For KTYMEMHY [compound 57], the “ELISPOT result (positive Yes/No) for peptides marked Tested” value [4] was “No”, the “ELISPOT result … (Yes/No)” value [4] was “Yes” and the Elispot reactive [5] was “Yes”.
For KVDTHHLQV [compound 133], the “ELISPOT result (positive Yes/No) for peptides marked Tested” value [4] was “No”.
KVPFFSALK [compound 169] was tested, and the “ELISPOT result (positive Yes/No) for peptides marked Tested” value [4] was “No”.
